Results reported in patent publication US20230167073A1 (Teijin Pharma Limited, priority 2020, published 2023).

Molecular target: T1, Human TRPC6 (Homo sapiens, UniProt Q9Y210)
T1 construct: expressed in transfected cells
T1 sequence (Q9Y210 1-931): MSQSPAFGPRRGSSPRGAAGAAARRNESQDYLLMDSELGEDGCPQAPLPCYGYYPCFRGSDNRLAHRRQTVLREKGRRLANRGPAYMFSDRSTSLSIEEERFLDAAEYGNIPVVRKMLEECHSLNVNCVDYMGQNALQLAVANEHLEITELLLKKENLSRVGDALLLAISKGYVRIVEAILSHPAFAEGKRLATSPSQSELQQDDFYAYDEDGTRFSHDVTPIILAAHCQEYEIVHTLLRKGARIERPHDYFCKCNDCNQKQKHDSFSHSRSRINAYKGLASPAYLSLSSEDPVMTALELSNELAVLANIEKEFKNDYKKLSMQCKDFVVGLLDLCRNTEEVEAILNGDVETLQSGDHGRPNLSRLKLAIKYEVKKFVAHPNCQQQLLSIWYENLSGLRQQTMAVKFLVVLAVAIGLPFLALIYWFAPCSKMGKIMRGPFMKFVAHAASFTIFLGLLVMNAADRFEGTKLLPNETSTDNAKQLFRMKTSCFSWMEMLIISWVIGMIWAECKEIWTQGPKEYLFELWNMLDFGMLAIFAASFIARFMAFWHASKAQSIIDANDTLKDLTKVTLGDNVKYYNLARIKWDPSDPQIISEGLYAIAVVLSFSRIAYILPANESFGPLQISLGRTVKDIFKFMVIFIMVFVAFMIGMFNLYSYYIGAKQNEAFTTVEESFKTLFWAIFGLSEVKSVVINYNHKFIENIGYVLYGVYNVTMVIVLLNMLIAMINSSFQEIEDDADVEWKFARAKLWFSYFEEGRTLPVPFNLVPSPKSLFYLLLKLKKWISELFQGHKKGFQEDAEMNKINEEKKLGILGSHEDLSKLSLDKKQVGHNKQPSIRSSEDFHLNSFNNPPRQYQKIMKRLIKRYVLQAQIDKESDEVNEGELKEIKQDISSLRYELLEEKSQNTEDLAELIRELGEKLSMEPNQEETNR
Assay: Evaluation of TRPC6 channel inhibitory activity (1), FLIPR Calcium 5 Assay Kit, OAG stimulation (Compound Nos. 1-1293)
Type: cell-based
Settings: Human TRPC6 stably-expressing cells, OAG 30 μM, FLIPR Calcium 5 Assay Kit; read-out: Inhibitory activity (pIC50 class) (converted)
Summary of the method: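 Calcium influx read by FLIPR fluorescence in cells stably expressing human TRPC6, dye-loaded 30 min. Compounds preincubated 20 min, then OAG stimulation at 30 μM final. Inhibition fitted by four-parameter logistic regression to give pIC50, reported as +/++/+++ categories.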

IC50 [nM] | Compound
10 to 1000 | CN(C)c1cc(Sc2cc(C#N)ccc2-c2ccc(CN)cn2)cnn1 [compound 1266, 4-[5-(aminomethyl)pyridin-2-yl]-3-[6-(dimethylamino)pyridazin-4-yl]sulfanylbenzonitrile]
> 1000 | CN(C)c1cc(Sc2cc(C#N)ccc2-c2ncc(CN)cn2)cnn1 [compound 1267, 4-[5-(aminomethyl)pyrimidin-2-yl]-3-[6-(dimethylamino)pyridazin-4-yl]sulfanylbenzonitrile]
10 to 1000 | N#Cc1ccc(-c2ncc(CN)cn2)c(Sc2cnnc(N3CCCCC3)c2)c1 [compound 1268, 4-[5-(aminomethyl)pyrimidin-2-yl]-3-(6-piperidin-1-ylpyridazin-4-yl)sulfanylbenzonitrile]
> 1000 | N#Cc1ccc(-c2ncc(CN)cn2)c(Sc2nnc(N3CCCCC3)s2)c1 [compound 1269, 4-[5-(aminomethyl)pyrimidin-2-yl]-3-[(5-piperidin-1-yl-1,3,4-thiadiazol-2-yl)sulfanyl]benzonitrile]
10 to 1000 | N#Cc1ccc(-c2ncc(CCN)cn2)c(Sc2nnc(N3CCCCC3)s2)c1 [compound 1270, 4-[5-(2-aminoethyl)pyrimidin-2-yl]-3-[(5-piperidin-1-yl-1,3,4-thiadiazol-2-yl)sulfanyl]benzonitrile]
> 1000 | N#Cc1ccc(-c2ncc(CN)cn2)c(Sc2nnc(N3CCOCC3)s2)c1 [compound 1271, 4-[5-(aminomethyl)pyrimidin-2-yl]-3-[(5-morpholin-4-yl-1,3,4-thiadiazol-2-yl)sulfanyl]benzonitrile]
10 to 1000 | CC(C)Nc1cc(Sc2cc(C#N)ccc2-c2ncc(CN)cn2)cnn1 [compound 1272, 4-[5-(aminomethyl)pyrimidin-2-yl]-3-[6-(propan-2-ylamino)pyridazin-4-yl]sulfanylbenzonitrile]
10 to 1000 | CC(C)CNc1cc(Sc2cc(C#N)ccc2-c2ncc(CN)cn2)cnn1 [compound 1273, 4-[5-(aminomethyl)pyrimidin-2-yl]-3-[6-(2-methylpropylamino)pyridazin-4-yl]sulfanylbenzonitrile]
10 to 1000 | N#Cc1ccc(-c2ncc(CCN)cn2)c(Sc2sc(-c3ccccc3)nc2C#N)c1 [compound 1274, 5-[2-[5-(2-aminoethyl)pyrimidin-2-yl]-5-cyanophenyl]sulfanyl-2-phenyl-1,3-thiazole-4-carbonitrile]
> 1000 | N#Cc1ccc(-c2ncc(CCN)cn2)c([S+]([O-])c2cnnc(-c3ccccc3)c2)c1 (stereo not drawn) [compound 1275, 4-[5-(2-aminoethyl)pyrimidin-2-yl]-3-(6-phenylpyridazin-4-yl)sulfinylbenzonitrile]
10 to 1000 | Cn1nc(-c2ccccc2)cc1Oc1cc(C#N)ncc1-c1ccc(CN)cn1 [compound 1278, 5-[5-(aminomethyl)pyridin-2-yl]-4-(2-methyl-5-phenylpyrazol-3-yl)oxypyridine-2-carbonitrile]
< 10 | Cn1nc(-c2ccccn2)cc1Oc1nc(C#N)ccc1-c1ccc(CCN)cn1 [compound 1280, 5-[5-(2-aminoethyl)pyridin-2-yl]-6-(2-methyl-5-pyridin-2-ylpyrazol-3-yl)oxypyridine-2-carbonitrile]
10 to 1000 | Cn1nc(C2CC2)cc1Oc1nc(C#N)ccc1-c1ncc(CCN)cn1 [compound 1281, 5-[5-(2-aminoethyl)pyrimidin-2-yl]-6-(5-cyclopropyl-2-methylpyrazol-3-yl)oxypyridine-2-carbonitrile]
10 to 1000 | Cc1cc(Oc2nc(C#N)ccc2-c2ccc(CCN)cn2)cc(N2CCCC2)n1 [compound 1282, 5-[5-(2-aminoethyl)pyridin-2-yl]-6-(2-methyl-6-pyrrolidin-1-ylpyridin-4-yl)oxypyridine-2-carbonitrile]
> 1000 | Cn1nc(-c2ccccn2)cc1Oc1nc(C#N)ccc1-c1ncc(CN)cn1 [compound 1283, 5-[5-(aminomethyl)pyrimidin-2-yl]-6-(2-methyl-5-pyridin-2-ylpyrazol-3-yl)oxypyridine-2-carbonitrile]
10 to 1000 | Cc1cc(Oc2nc(C#N)ccc2-c2ccc(CCN)cn2)cc(N2CCOCC2)n1 [compound 1284, 5-[5-(2-aminoethyl)pyridin-2-yl]-6-(2-methyl-6-morpholin-4-ylpyridin-4-yl)oxypyridine-2-carbonitrile]
> 1000 | Cc1cc(Oc2nc(C#N)ccc2-c2ncc(CN)cn2)cc(N2CCOCC2)n1 [compound 1285, 5-[5-(aminomethyl)pyrimidin-2-yl]-6-(2-methyl-6-morpholin-4-ylpyridin-4-yl)oxypyridine-2-carbonitrile]
> 1000 | Cc1cc(Oc2nc(C#N)ccc2-c2ncc(CN)cn2)cc(-c2ccccn2)n1 [compound 1286, 5-[5-(aminomethyl)pyrimidin-2-yl]-6-(2-methyl-6-pyridin-2-ylpyridin-4-yl)oxypyridine-2-carbonitrile]
> 1000 | Cn1nc(-c2ccccn2)cc1Oc1cc(C#N)cnc1-c1ncc(CN)cn1 [compound 1287, 6-[5-(aminomethyl)pyrimidin-2-yl]-5-(2-methyl-5-pyridin-2-ylpyrazol-3-yl)oxypyridine-3-carbonitrile]
> 1000 | Cn1nc(-c2ccccn2)cc1Oc1cc(C#N)cnc1-c1ccc(CN)cc1 [compound 1288, 6-[4-(aminomethyl)phenyl]-5-(2-methyl-5-pyridin-2-ylpyrazol-3-yl)oxypyridine-3-carbonitrile]
10 to 1000 | Cn1nc(-c2ccccc2)cc1Oc1cc(Cl)ncc1-c1ccc(CCN)cn1 [compound 1290, 2-[6-[6-chloro-4-(2-methyl-5-phenylpyrazol-3-yl)oxypyridin-3-yl]pyridin-3-yl]ethanamine]
> 1000 | Cn1nc(-c2ccccc2)cc1Oc1cc(Cl)ncc1-c1ccc(CN)cn1 [compound 1291, [6-[6-chloro-4-(2-methyl-5-phenylpyrazol-3-yl)oxypyridin-3-yl]pyridin-3-yl]methanamine]
10 to 1000 | Cn1nc(-c2ccccc2)cc1Oc1nc(Cl)ccc1-c1ccc(CCN)cn1 [compound 1292, 2-[6-[6-chloro-2-(2-methyl-5-phenylpyrazol-3-yl)oxypyridin-3-yl]pyridin-3-yl]ethanamine]
10 to 1000 | Cn1nc(-c2ccccc2)cc1Oc1nc(Cl)ccc1-c1ccc(CN)cn1 [compound 1293, [6-[6-chloro-2-(2-methyl-5-phenylpyrazol-3-yl)oxypyridin-3-yl]pyridin-3-yl]methanamine]
